This is an account of results in US9872840B2, “Effect of garcinol in delaying the progression of diabetic nephropathy” (Delhi Institute of Pharmaceutical Sciences and Research, priority 2013, dated 2018).

Format in all cases: in vivo, rat
Assay [1] deals with glucose transporter 2 (GLUT2). The assay can be described thus: GLUT-2 protein expression in liver of diabetic rats (Western blot). As to conditions: 8 weeks treatment, FIG. 3. On the procedure:
For determination of glucose transporter 2 (GLUT2) protein expressions in liver and glucose transporter 4 (GLUT4) protein expressions in skeletal muscle; each sample prepared was mixed with 1% sodium dodecyl sulfate and 50 mM dithiothreitol, and the mixture was subjected to electrophoresis with 10% polyacrylamide gel. The separated proteins on the gel were electrotransferred to a polyvinylidene difluoride membrane. After blocking with 5% skim milk solution including 0.05% Poly (Oxyethylene) sorbitan monolaurate (Tween 20) overnight at 4° C., the membrane was reacted with anti-GLUT-2 antibody (Abcam, UK) & anti-GLUT-4 antibody (Abcam, UK) for 2 h. Subsequently, it was incubated with horseradish peroxidase conjugated IgG (diluted 1:2000) [Jackson immunoresearch laboratories, USA] for 2 h at room temperature (Western Blot). Reduced qualitative expression of GLUT2 and GLUT 4 in liver and muscle respectively of diabetic rats were improved with the garcinol treatment (FIG. 3), which were better than observed with olmesartan.
In general terms: Immunoblotting shows a protein as a band on a membrane.

The subject of assay [2] is STZ diabetic rats. The assay can be described thus: Homeostatic model assessment (HOMA-Index, β-cell function) in STZ diabetic rats. As to conditions: STZ diabetic rats after treatment; mean ± S.E.M., five animals. The source says: The homeostatic model assessment (HOMA) is a method used to quantify insulin resistance and beta-cell function (Homeostasis model assessment: insulin resistance and beta-cell function from fasting plasma glucose and insulin concentrations in man. Diabetologia 28: 412-9.). The approximating equation for insulin resistance, in the early model, used a fasting plasma sample, and was derived by use of the insulin-glucose product, divided by a constant. HOMA-IR=(Glucose×Insulin)/405;HOMA-% B=([…])/(Glucose-63)
Where IR is insulin resistance and % B is the β-cell function where Glucose is given in mg/dl and Insulin is given in μU/mL (both during fasting). Garcinol inhibited insulin resistance assessed by HOMA-Index with significance when compared with the diabetic group.

In assay [3] the test system is STZ diabetic rats. The assay can be described thus: Renal function and biochemical parameters in plasma/serum of STZ diabetic rats. As to conditions: 8 weeks, garcinol 200 mg/kg, olmesartan 6 mg/kg, glimepiride 1 mg/kg. The procedure:
The Garcinol used for the experimental studies was bought from Sami Labs, Hyderabad. It was administered at the dose of 200 mg/kg dispersed in water with 1% CMC. Further, the experimental procedures were conducted according to the Institutional Animal Ethical Committee (protocol no. DIPSAR/IAEC/2009/01) and CPCSEA guidelines. All rats were housed under conventional conditions with controlled temperature, humidity and light (12 hours light-dark cycle), and were provided with a standard commercial diet and water (ad libitum). Healthy albino rats of Wistar strain were kept for breeding. Diabetes was induced by administration of streptozotocin (STZ, 90 mg/kg, i.p.) to a group of 2 day old pups. Age-matched control rats were given an equal volume of vehicle and considered as ‘Normal’ group of rats. Six weeks after injection, the blood glucose level was measured from the tail vein. Rats with a fasting blood glucose level over 160 mg/dl were considered as diabetic.
After 6 weeks, four groups of animals, each comprising of 8 animals were made. The groups were assigned to receive vehicle or garcinol (200 mg/kg dispersed in 1% CMC); Olmesartan (6 mg/kg/day) and Glimepiride (1 mg/kg/day) once daily for 8 weeks. After the final drug administration, body weight was measured and blood samples were collected in both fasting and post prandial conditions. The kidney of treated and untreated animals were isolated and fixed in 10% buffered formalin solution to prepare paraffin sections.
Biochemical estimation for glucose, insulin, albumin and total proteins; glomerular proteins (viz β-2 microglobulin, serum cystatin c and serum creatinine) for the determination of GFR; inflammatory cytokines and growth factors like Tumor necrosis factor (TNF-α), Nitric Oxide (NO), Transforming growth factor (TGF-β1) and Vascular endothelial growth factor (VEGF) and kidney specific molecular markers involving adiponectin and erythropoietin were made in plasma/serum.

`CCC1=C(C)CN(C(=O)NCCc2ccc(S(=O)(=O)NC(=O)N[C@H]3CC[C@H](C)CC3)cc2)C1=O` [Glimepiride, glimepiride]: the “Qualitative expression of GLUT2 in liver” value in assay [1] is given as “did not show any improvement”. In the assay on STZ diabetic rats [2], the “% BETA-CELL FUNCTION” value was 35.6 ± 5.24 and the HOMA-INDEX was 1.53 ± 0.144. Besides, in the assay on STZ diabetic rats [3], the Adiponectin is 2.277 ± 0.86 µg/mL, the “Beta-2 microglobulin (GFR)” value came to 1.42 ± 0.21 µg/mL, the Erythropoietin was determined as 0.5141 ± 0.13 mlU/ml and the “Nitric Oxide” value was found to be 0.33 ± 0.064 nmol/µL. Also, in the assay with STZ diabetic rats [3], the “Plasma Insulin” value came to 14.38 ± 1.29 ng/mL, the “Serum Creatinine (GFR)” value was found to be 1.873 ± 0.56 mg/dL, the “Serum CystatinC (GFR)” value amounted to 0.2933 ± 0.033 ng/mL and the TGF-β was 8.316 ± 2.06 pg/mL. Besides, in the assay on STZ diabetic rats [3], the TNF-α was 0.08563 ± 0.0167 pg/mL, the “Total Proteins” value is 1.956 ± 0.09 mg/mL and the VEGF came out at 61.29 ± 2.54 pg/mL.
